# Where two headings read alike, the source gives them in different places.
# What was measured:
# [1] = test system: patients undergoing percutaneous coronary intervention (PCI); conditions: human, in vivo, 48 h;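 further: bleeding events compared through 48 h in the safety population, meaning patients given at least one study drug dose and grouped by treatment actually received, two-tailed tests at 0.05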
# Experimental: (§1) The primary efficacy endpoint was the composite of mortality, myocardial infarction, or ischemia-driven revascularization at 48 hours. The primary analysis was performed on a modified intent-to-treat population. Confirmatory analyses were performed on an intent-to-treat population. Secondary endpoints included the individual rates of mortality, myocardial infarction, new Q-wave myocardial infarction, ischemia-driven revascularization, abrupt vessel closure, or stroke at 48 hours. Mortality at 30 days and 1 year was also recorded. The clinical events committee adjudicated myocardial infarction, Q-wave myocardial infarction, ischemia-driven revascularization, stent thromboses, and stroke (ischemic or hemorrhagic). The definition of stent thrombosis was similar to the Academic Research Consortium definition of definite stent thrombosis. After review of the prespecified analyses, two exploratory endpoints less reliant on periprocedural biomarker ascertainment were examined. The exploratory endpoints, which were composed of prespecified and adjudicated endpoints, were the composite of mortality, Q-wave myocardial infarction, or ischemia-driven revascularization and the composite of mortality, Q-wave myocardial infarction, or stent thrombosis. Bleeding and adverse events through 48 hours were compared.
# (§2) All efficacy analyses were performed on the modified intent-to-treat population, defined as all randomized patients who received at least one dose of study drug and underwent the index PCI. All safety-related analyses were performed on the safety population, which included all patients who received at least one dose of assigned study drug. Patients in the safety analyses were assigned to a treatment arm based on treatment actually received, not as randomized. Intent-to-treat analyses are also presented for full disclosure of results. All statistical tests were two-tailed using a level of significance of 0.05. […] Logistic regression was also used to analyze the majority of the remaining secondary endpoints.
# [2] = test system: patients with atherosclerosis undergoing PCI
# Experimental: The protocol called for aspirin (75 to 325 mg) to be administered to all patients. […] The choice of a periprocedural anticoagulant (bivalirudin, unfractionated heparin, low-molecular-weight heparin, or fondaparinux) was also at the discretion of the investigator. Glycoprotein IIb/IIIa inhibitors were allowed only as rescue therapy during PCI to treat new or persistent thrombus formation, slow or no reflow, side-branch compromise, dissection, or distal embolization. The investigator at the site determined the protocol for management of the arterial sheath.
# The inclusion criteria for the trial were men or nonpregnant women, 18 years of age or older with coronary atherosclerosis who required PCI for stable angina, a non-ST-segment elevation acute coronary syndrome, or ST-segment elevation myocardial infarction (STEMI). Patients were required to provide written informed consent.
# Major exclusion criteria were receipt of a P2Y12 inhibitor or abciximab at any time in the 7 days before randomization and receipt of eptifibatide or tirofiban or fibrinolytic therapy in the 12 hours before randomization.
# The primary efficacy end point was the composite rate of death from any cause, myocardial infarction, IDR, or stent thrombosis in the 48 hours after randomization in the modified intention-to-treat population (which comprised patients who actually underwent PCI and received the study drug). […] The key secondary end point was the incidence of stent thrombosis at 48 hours. This end point included definite stent thrombosis, defined according to the criteria of the Academic Research Consortium, or intraprocedural stent thrombosis, which was assessed, with group assignments concealed, at an angiographic core laboratory (Cardiovascular Research Foundation). Intraprocedural stent thrombosis was defined as any new or worsened thrombus related to the stent procedure that was confirmed angiographically. Events of death, myocardial infarction, IDR, and stent thrombosis that occurred during the first 30 days after randomization were adjudicated by the clinical events committee at the Duke Clinical Research Institute. The study adhered to the universal definition of myocardial infarction for myocardial infarction unrelated to PCI but expanded on the definition of PCI-related myocardial infarction.
# The numbers and percentages of patients within each analysis population (modified intention-to-treat, intention-to-treat, and safety) were summarized according to treatment group. The primary efficacy analysis of the rate of the composite end point of death from any cause, myocardial infarction, IDR, or stent thrombosis (with all events adjudicated by the clinical events committee) in the 48 hours after randomization was conducted in the modified intention-to-treat population. The primary safety analysis was conducted in the safety population, which comprised all patients who underwent randomization and received at least one dose of the study drug; patients were classified according to the actual treatment received. All calculations and statistical analyses were performed with the use of SAS software, version 9.2.
# [3] = test system: patients undergoing percutaneous coronary intervention (PCI); experiment: Example 1: bleeding and adverse events through 48 hours;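 further: bleeding events compared through 48 h in the safety population, meaning patients given at least one study drug dose and grouped by treatment actually received, two-tailed tests at 0.05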
# Experimental: as §1, §2
# [4] = test system: platelet function; conditions: in vivo; cited from earlier work
# [5] = in vivo; cited from earlier work
# [6] = 48 hours, ITT, Cangrelor vs Clopidogrel
# [7] = 48 hours, ITT, rate in parentheses
# [8] = 48 hours, modified intention-to-treat, Cangrelor vs Clopidogrel
# [9] = 30 days, cangrelor vs clopidogrel
# [10] = 30 days, modified intention-to-treat population
# [11] = 30 days, modified intention-to-treat, Cangrelor vs Clopidogrel
# [12] = 48-hour, safety population, cangrelor vs placebo
smiles,measurement,setting,value
"CSCCNc1nc(SCCC(F)(F)F)nc2c1ncn2[C@@H]1O[C@H](COP(=O)(O)OP(=O)(O)C(Cl)(Cl)P(=O)(O)O)[C@@H](O)[C@H]1O [Cangrelor, cangrelor]",ACUITY criteria Major bleeding,[1],147 (5.5) no. (%)
same,ACUITY criteria Minor bleeding,[1],320 (12.0) no. (%)
same,Access site bleeding requiring radiologic or surgical intervention,[1],8 (0.3) no. (%)
same,Any blood transfusion,[1],26 (1.0) no. (%)
same,Any platelet transfusion,[1],4 (0.2) no. (%)
same,Any red blood cell transfusion,[1],25 (0.9) no. (%)
same,Drop in hemoglobin and/or hematocrit,[1],33 (1.2) no. (%)
same,Ecchymosis,[1],95 (3.6) no. (%)
same,Epistaxis,[1],6 (0.2) no. (%)
same,GUSTO criteria Mild bleeding,[1],427 (16.0) no. (%)
same,GUSTO criteria Moderate bleeding,[1],20 (0.8) no. (%)
same,GUSTO criteria Severe/life-threatening bleeding,[1],9 (0.3) no. (%)
same,Hematoma <5 cm at puncture site,[1],150 (5.6) no. (%)
same,Hematoma ≧5 cm at puncture site,[1],115 (4.3) no. (%)
same,Hemodynamic compromise,[1],7 (0.3) no. (%)
same,Intracranial hemorrhage,[1],2 (0.1) no. (%)
same,Intraocular,[1],0 (0.0) no. (%)
same,Odds Ratio (95% CI): Any blood transfusion,[1],"1.624 (0.869, 3.034)"
same,Odds Ratio (95% CI): Any platelet transfusion,[1],"1.992 (0.365, 10.887)"
same,Odds Ratio (95% CI): Any red blood cell transfusion,[1],"1.665 (0.876, 3.166)"
same,Odds Ratio (95% CI): Drop in hemoglobin and/or hematocrit,[1],"0.938 (0.581, 1.514)"
same,Odds Ratio (95% CI): Ecchymosis,[1],"1.684 (1.207, 2.349)"
same,Odds Ratio (95% CI): Epistaxis,[1],"0.497 (0.186, 1.325)"
same,Odds Ratio (95% CI): GUSTO criteria Mild bleeding,[1],"1.442 (1.232, 1.688)"
same,Odds Ratio (95% CI): Reoperation for bleeding,[1],"0.995 (0.062, 15.924)"
same,Odds Ratio (95% CI): Retroperitoneal,[1],"1.992 (0.180, 21.978)"
same,Odds Ratio (95% CI): TIMI criteria Major bleeding,[1],"0.442 (0.136, 1.436)"
same,Odds Ratio (95% CI): TIMI criteria Minor bleeding,[1],"1.372 (0.719, 2.618)"
same,Odds Ratio (95% CI): Thrombocytopenia,[1],"0.663 (0.111, 3.973)"
same,Oozing at puncture site,[1],125 (4.7) no. (%)
same,Reoperation for bleeding,[1],1 (0.0) no. (%)
same,Retroperitoneal,[1],2 (0.1) no. (%)
same,TIMI criteria Major bleeding,[1],4 (0.2) no. (%)
same,TIMI criteria Minor bleeding,[1],22 (0.8) no. (%)
same,"odds ratio, primary end point",[2]; 300-mg loading dose of clopidogrel,0.84
same,"odds ratio, primary end point",[2]; 600-mg loading dose of clopidogrel,0.77
same,number needed to treat to prevent one primary end-point event,[2]; 48 hours,84
same,rate of stent thrombosis (key secondary efficacy end point),[2]; 48 hours,0.8%
same,Death OR,[2]; [6],0.95
same,Death/MI OR,[2]; [6],0.80
same,Death/MI/IDR OR,[2]; [6],0.80
same,Death/MI/IDR/ST OR,[2]; [6],0.79
same,Death/MI/IDR/ST/GUSTO Severe Bleeding (NACE) OR,[2]; [6],0.80
same,Death/MI/ST OR,[2]; [6],0.79
same,Death/Q-wave MI/IDR OR,[2]; [6],0.77
same,Death/ST OR,[2]; [6],0.67
same,IDR OR,[2]; [6],0.76
same,MI OR,[2]; [6],0.80
same,Q-wave MI OR,[2]; [6],0.61
same,Stent thrombosis OR,[2]; [6],0.62
same,Death,"[2]; 48 hours, ITT, n/N",20/5573
same,Death/MI,"[2]; 48 hours, ITT, n/N",222/5573
same,Death/MI/IDR,"[2]; 48 hours, ITT, n/N",233/5573
same,Death/MI/IDR/ST,"[2]; 48 hours, ITT, n/N",260/5573
same,"Death/MI/IDR/ST/GUSTO Severe Bleeding (Net Adverse Clinical Events, NACE)","[2]; 48 hours, ITT, n/N",267/5573
same,Death/MI/ST,"[2]; 48 hours, ITT, n/N",251/5573
same,Death/Q-wave MI/IDR,"[2]; 48 hours, ITT, n/N",52/5573
same,Death/ST,"[2]; 48 hours, ITT, n/N",61/5573
same,IDR,"[2]; 48 hours, ITT, n/N",29/5573
same,MI,"[2]; 48 hours, ITT, n/N",207/5573
same,Q-wave MI,"[2]; 48 hours, ITT, n/N",11/5573
same,Stent thrombosis,"[2]; 48 hours, ITT, n/N",46/5573
same,Death,[2]; [7],(0.4)
same,Death/MI,[2]; [7],(4.0)
same,Death/MI/IDR,[2]; [7],(4.2)
same,Death/MI/IDR/ST,[2]; [7],(4.7)
same,"Death/MI/IDR/ST/GUSTO Severe Bleeding (Net Adverse Clinical Events, NACE)",[2]; [7],(4.8)
same,Death/MI/ST,[2]; [7],(4.5)
same,Death/Q-wave MI/IDR,[2]; [7],(0.9)
same,Death/ST,[2]; [7],(1.1)
same,IDR,[2]; [7],(0.5)
same,MI,[2]; [7],(3.7)
same,Q-wave MI,[2]; [7],(0.2)
same,Stent thrombosis,[2]; [7],(0.8)
same,"odds ratio, stent thrombosis","[2]; 48 hours, cangrelor vs clopidogrel",0.62
same,"odds ratio, primary composite efficacy end point","[2]; 48 hours, crude analysis, cangrelor vs clopidogrel",0.79
same,"odds ratio, primary composite efficacy end point","[2]; 48 hours, logistic regression adjusted for baseline status and clopidogrel loading dose, cangrelor vs clopidogrel",0.78
same,"rate of primary composite efficacy end point (death from any cause, myocardial infarction, IDR, or stent thrombosis)","[2]; 48 hours, modified intention-to-treat",4.7%
same,"Death from any cause, Odds Ratio (95% CI)",[2]; [8],1.00 (0.52-1.92)
same,"Death from cardiovascular causes, Odds Ratio (95% CI)",[2]; [8],1.00 (0.52-1.92)
same,"Death or stent thrombosis, Odds Ratio (95% CI)",[2]; [8],0.67 (0.48-0.94)
same,"Death, Q-wave myocardial infarction, or ischemia-driven revascularization, Odds Ratio (95% CI)",[2]; [8],0.76 (0.53-1.11)
same,Death/MI OR (95% CI),[2]; [8],"0.80 (0.67, 0.96)"
same,Death/MI/Definite ST OR (95% CI),[2]; [8],"0.80 (0.66, 0.95)"
same,Death/MI/IDR OR (95% CI),[2]; [8],"0.80 (0.67, 0.95)"
same,Death/MI/IDR/Definite ST OR (95% CI),[2]; [8],"0.80 (0.67, 0.95)"
same,Death/MI/ST OR (95% CI),[2]; [8],"0.79 (0.66, 0.94)"
same,Definite ST OR (95% CI),[2]; [8],"0.54 (0.27, 1.10)"
same,"Ischemia-driven revascularization, Odds Ratio (95% CI)",[2]; [8],0.74 (0.45-1.20)
same,"Key secondary end point: stent thrombosis, Odds Ratio (95% CI)",[2]; [8],0.62 (0.43-0.90)
same,"Myocardial infarction, Odds Ratio (95% CI)",[2]; [8],0.80 (0.67-0.97)
same,"Net adverse clinical events, Odds Ratio (95% CI)",[2]; [8],0.80 (0.68-0.94)
same,"Q-wave myocardial infarction, Odds Ratio (95% CI)",[2]; [8],0.61 (0.29-1.29)
same,"Primary end point: death from any cause, myocardial infarction, ischemia-driven revascularization, or stent thrombosis, Odds Ratio (95% CI)","[2]; 48 hours, modified intention-to-treat, Cangrelor vs Clopidogrel, logistic regression adjusted for baseline status and clopidogrel loading dose",0.78 (0.66-0.93)
same,net rate of adverse clinical events (primary efficacy plus primary safety end point),"[2]; 48 hours, post hoc",4.8%
same,"odds ratio, net adverse clinical events","[2]; 48 hours, post hoc, cangrelor vs clopidogrel",0.80
same,Stent thrombosis,[2]; 30 days,1.3%
same,rate of the composite efficacy end point,[2]; 30 days,6.0%
same,"odds ratio, composite efficacy end point",[2]; [9],0.85
same,"odds ratio, stent thrombosis",[2]; [9],0.68
same,Death from any cause,[2]; [10],(1.1) percent
same,"Death from any cause, myocardial infarction, ischemia-driven revascularization, or stent thrombosis",[2]; [10],(6.0) percent
same,Death from cardiovascular causes,[2]; [10],(0.9) percent
same,"Death from any cause, Odds Ratio",[2]; [11],1.09
same,"Death from cardiovascular causes, Odds Ratio",[2]; [11],1.04
same,"Ischemia-driven revascularization, Odds Ratio",[2]; [11],0.85
same,"Myocardial infarction, Odds Ratio",[2]; [11],0.82
same,"Q-wave myocardial infarction, Odds Ratio",[2]; [11],0.63
same,"Stent thrombosis, Odds Ratio",[2]; [11],0.68
same,"Death from any cause, myocardial infarction, ischemia-driven revascularization, or stent thrombosis, Odds Ratio","[2]; 30 days, modified intention-to-treat, Cangrelor vs Clopidogrel, adjusted logistic regression",0.85
same,"odds ratio, intraprocedural stent thrombosis",[2]; cangrelor vs clopidogrel,0.65
same,"odds ratio, procedural complications",[2]; cangrelor vs clopidogrel,0.74
same,"odds ratio, rescue therapy with a glycoprotein IIb/IIIa inhibitor",[2]; cangrelor vs clopidogrel,0.65
same,odds of an ischemic event lower than with clopidogrel,[2]; in vivo,22%
same,odds of stent thrombosis lower than with clopidogrel,[2]; in vivo,38%
same,rate of intraprocedural stent thrombosis,[2]; in vivo,0.6%
same,rate of procedural complications,[2]; in vivo,3.4%
same,use of rescue therapy with a glycoprotein IIb/IIIa inhibitor,[2]; in vivo,2.3%
same,"odds ratio, primary end point",[2]; infusion for 129 minutes or less,0.85
same,"odds ratio, primary end point",[2]; infusion for more than 129 minutes,0.72
same,"odds ratio, primary end point",[2]; patients who received the loading dose during or after PCI,0.79
same,"odds ratio, primary end point",[2]; patients who received the loading dose immediately before PCI,0.80
same,Thrombocytopenia,"[3]; 48-hour, safety population",2 (0.1) no. (%)
same,Odds Ratio (95% CI): ACUITY criteria Major bleeding,[3]; [12],"1.607 (1.232, 2.096)"
same,Odds Ratio (95% CI): ACUITY criteria Minor bleeding,[3]; [12],"1.335 (1.120, 1.592)"
same,Odds Ratio (95% CI): Access site bleeding requiring radiologic or surgical intervention,[3]; [12],"0.796 (0.314, 2.019)"
same,Odds Ratio (95% CI): GUSTO criteria Moderate bleeding,[3]; [12],"1.536 (0.762, 3.093)"
same,Odds Ratio (95% CI): GUSTO criteria Severe/life-threatening bleeding,[3]; [12],"1.495 (0.531, 4.205)"
same,Odds Ratio (95% CI): Hematoma <5 cm at puncture site,[3]; [12],"1.270 (0.992, 1.626)"
same,Odds Ratio (95% CI): Hematoma ≧5 cm at puncture site,[3]; [12],"1.640 (1.214, 2.216)"
same,Odds Ratio (95% CI): Hemodynamic compromise,[3]; [12],"1.395 (0.442, 4.400)"
same,Odds Ratio (95% CI): Intracranial hemorrhage,[3]; [12],"1.992 (0.180, 21.978)"
same,Odds Ratio (95% CI): Oozing at puncture site,[3]; [12],"1.385 (1.052, 1.825)"
same,rates of red blood cell transfusion,[3]; 48 hours,0.9%
same,incidence of dyspnea,"[3]; human, in vivo, 48 h",1.4%
same,rate of arrhythmia,"[3]; human, in vivo, 48 h",2.3%
same,platelet function returns to normal after drug termination,[4],30 to 60 min
same,plasma half-life,[5],3 to 5 min

# From patent US8680052B1, “Methods of treating, reducing the incidence of, and/or preventing ischemic events” (The Medicines Company, priority 2013, dated 2014)
